The structures appear in SMILES notation. Read-outs that look alike come from different tables or passages of the source.

What is called EC50 is the concentration at which the effect is half-maximal. Usually IC50 stands for the midpoint of a concentration-inhibition curve.

In assay [1] the target is T1, recombinantly expressed His-tagged protein corresponding to amino acids 575-869 of human Tyk2 (Homo sapiens, UniProt P29597).
T1 construct: made in house
The assay can be described thus: Probe displacement assay (scintillation proximity, tritiated probe). In kind it is binding. The conditions noted are these: His-tagged Tyk2 (575-869) 2.5 nM, 40 nM radiolabeled probe, 30 minutes at room temperature. Here is the method:
The preparation of radiolabeled probe, (R)—N-(1-(3-(8-methyl-5-(methylamino)-8H-imidazo[4,5-d]thiazolo[5,4-b]pyridin-2-yl)phenyl)ethyl)-2-([^3H]methylsulfonyl)benzamide, was performed as described below: […]
(SPA uses beads or plates that emit light when radiolabelled molecules are held near them.)

For assay [2], the system named is IFNα stimulated Kit225 T cells with a stably-integrated STAT-dependent luciferase reporter. The assay can be described thus: Kit225 T cell assay, IFNα stimulated STAT-dependent luciferase reporter. The format is cell-based, human. Here is the method:
(§1) Kit225 T cells with a stably-integrated STAT-dependent luciferase reporter were plated in RPMI (GIBCO) containing 10% heat-inactivated FBS (GIBCO) and 100 U/mL PenStrep (GIBCO). The cells were then stimulated with either 20 ng/mL human recombinant IL-23 or 200 U/mL human recombinant IFNα (PBL InterferonSource) for 5-6 hours. Luciferase expression was measured using the STEADY-GLO Luciferase Assay System (PROMEGA) according to the manufacturer's instructions.

Assay [3] deals with IL-23 stimulated Kit225 T cells with a stably-integrated STAT-dependent luciferase reporter. The assay can be described thus: Kit225 T cell assay, IL-23 stimulated STAT-dependent luciferase reporter. In kind it is cell-based, human. The protocol: as §1
Where [4] appears, read: KIT225, 200 U/mL human recombinant IFNα, 5-6 hours, luciferase, read-out: IFNa Kit225 Reporter, (IC50).
Setting [5] is: KIT225, 20 ng/mL human recombinant IL-23, 5-6 hours, luciferase, read-out: IL-23 Kit225 Reporter, (IC50).

T1 sequence (P29597 with tags, fused parts or gaps): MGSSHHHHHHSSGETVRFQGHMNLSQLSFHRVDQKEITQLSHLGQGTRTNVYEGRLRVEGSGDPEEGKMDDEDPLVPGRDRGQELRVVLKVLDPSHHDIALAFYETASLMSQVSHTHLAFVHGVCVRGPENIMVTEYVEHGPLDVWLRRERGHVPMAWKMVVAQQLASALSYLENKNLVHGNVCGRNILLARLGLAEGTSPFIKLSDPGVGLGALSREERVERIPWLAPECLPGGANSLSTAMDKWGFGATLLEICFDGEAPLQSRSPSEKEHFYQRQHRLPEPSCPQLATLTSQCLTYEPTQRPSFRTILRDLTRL

On to `CNc1cc(Nc2cccnc2-n2nc(C)cc2C(F)(F)F)nn2c(C(=O)NC3CC3)cnc12` [Example 100], for which the EC50 in assay [1] came to 140 nM. Moreover, the IC50 in assay [2] (setting [4]) and in assay [3] (setting [5]) was 12.5 µM each time.
Consider `CNc1cc(Nc2cccnc2-n2ccc(C)n2)nn2c(C(=O)NC3CC3)cnc12` [Example 101], for which the EC50 in assay [1] amounted to 270 nM. Moreover, the IC50 in assay [2] (Homo sapiens, KIT225, 200 U/mL human recombinant IFNα, 5-6 hours, luciferase, read-out: IFNa Kit225 Reporter, (IC50)) is 5.79 µM; in assay [3] (Homo sapiens, KIT225, 20 ng/mL human recombinant IL-23, 5-6 hours, luciferase, read-out: IL-23 Kit225 Reporter, (IC50)) it was 7.19 µM.
On to `CCNC(=O)c1ncccc1Nc1cc(NC)c2ncc(C(=O)NC3CC3)n2n1` [Example 103], for which the EC50 in assay [1] amounted to 160 nM. In addition, the IC50 in assay [2] (Homo sapiens, KIT225, read-out: IFNa Kit225 Reporter, (IC50, uM)) amounted to 0.36 µM; in assay [3] (Homo sapiens, KIT225, read-out: IL-23 Kit225 Reporter, (IC50, uM)), 0.47 µM.
In the case of `O=C(NC1CC1)c1cnc2c(NCCN3CCOCC3)cc(Nc3cccc4c3OCCO4)nn12` [Example 110], the EC50 in assay [1] amounted to 7.52 nM. Besides, the IC50 in assay [2] (setting [4]) was 0.12 µM; in assay [3] (setting [5]) it was 0.16 µM.
In the case of `CNc1cc(Nc2cccc(-c3ccc(C(F)(F)F)cc3F)c2)nn2c(C(=O)NC3CC3)cnc12` [Example 116], in assay [1], the concentration for a half-maximal effect (EC50) is 65.5 nM. Besides, the IC50 was 1.2 µM in assay [2] (setting [4]) and 1.1 µM in assay [3] (setting [5]).

The values above are taken from patent US10479793B2, “Imidazopyridazine compounds useful as modulators of IL-12, IL-23 and/or IFN alpha responses” (BRISTOL-MYERS SQUIBB COMPANY, priority 2015, dated 2019).
